Laboratory results: paper PMC2865783, “Synthesis, Antiinflammatory and HIV-1 Integrase Inhibitory Activities of 1,2-Bis[5-thiazolyl]ethane-1,2-dione Derivatives” (Indian Journal of Pharmaceutical Sciences, 2009)
Read-outs that look alike come from different tables or passages of the source.

Tests used:
[1] = test system: carrageenan-induced rat-paw edema; test: carrageenan-induced rat paw edema method; type: in vivo; conditions: for antiinflammatory activity (in words): carrageenan-induced rat paw edema, 100 mg/kg; for % PROTECTION: Table 3, all compounds screened at 100 mg/kg body weight
Procedure: (§1) Phenyl isothiocyanate was procured from Lancaster. Methyl isothiocyanate was gift sample from Hitesh Chemicals and Drugs Pvt Ltd, Hyderabad, India. Benzoylisothiocyanate, methoxycarbonyl isothiocyanate, ethoxy carbonyl isothiocyanate, N,N-diethyl actamidine, N,N-diethyl benzamidine, N,N-diethylphenyl acetamidine and 1,4-dibromo butane 2,3-dione were prepared in our lab following the reported procedures. Carrageenin was procured from Spectrochem India limited. HIV-1 integrase assay was done at Department of Pharmaceutical Sciences, School of Pharmacy, University of Southern California, Los Angeles, USA[18]. The reported protocol was followed for carrageenin-induced rat paw edema method[19] for evaluation of antiinflammatory activity. All compounds were screened in a group of 6 animals at dose of 100 mg/kg body weight of the animal. The experimental protocol was approved by the institutional animal ethics committee, constituted as per CPCSEA, Government of India.

[2] = biological target: T1, HIV-1 integrase (Human immunodeficiency virus type 1 group M subtype B, UniProt P12497); test: extracellular HIV-1 integrase assay (3'-processing and strand transfer); type: biochemical
T1 construct: […]; AS MEASURED IN AN EXT[…]-1 INTEGRASE ASSAY
Excerpt: Integrase (IN) has emerged as an attractive target, because it is necessary for stable infection and homologous enzymes are lacking in the human host[11]. The function of IN is to catalyze integration of proviral DNA, resulting from the reverse transcription of viral RNA, into the host genome. This is achieved in a stepwise fashion by endonucleolytic processing of proviral DNA within a cytoplasmic preintegration complex (termed 3' P-processing or “3'-P”), followed by translocation of the complex into the nuclear compartment where integration of 3'-processed proviral DNA into host DNA occurs in a “strand transfer” (ST) reaction. […] (fig. 1B)[1112]. The presence of diketo pharmacophore in the synthesized compounds made us to screen these compounds in a HIV-1 integrase inhibitory assay.
as §1

[3] = biological target: T2, cPLA2 (Homo sapiens, UniProt P47712); test: cPLA2 inhibition; type: biochemical
T2 sequence (P47712 1-749): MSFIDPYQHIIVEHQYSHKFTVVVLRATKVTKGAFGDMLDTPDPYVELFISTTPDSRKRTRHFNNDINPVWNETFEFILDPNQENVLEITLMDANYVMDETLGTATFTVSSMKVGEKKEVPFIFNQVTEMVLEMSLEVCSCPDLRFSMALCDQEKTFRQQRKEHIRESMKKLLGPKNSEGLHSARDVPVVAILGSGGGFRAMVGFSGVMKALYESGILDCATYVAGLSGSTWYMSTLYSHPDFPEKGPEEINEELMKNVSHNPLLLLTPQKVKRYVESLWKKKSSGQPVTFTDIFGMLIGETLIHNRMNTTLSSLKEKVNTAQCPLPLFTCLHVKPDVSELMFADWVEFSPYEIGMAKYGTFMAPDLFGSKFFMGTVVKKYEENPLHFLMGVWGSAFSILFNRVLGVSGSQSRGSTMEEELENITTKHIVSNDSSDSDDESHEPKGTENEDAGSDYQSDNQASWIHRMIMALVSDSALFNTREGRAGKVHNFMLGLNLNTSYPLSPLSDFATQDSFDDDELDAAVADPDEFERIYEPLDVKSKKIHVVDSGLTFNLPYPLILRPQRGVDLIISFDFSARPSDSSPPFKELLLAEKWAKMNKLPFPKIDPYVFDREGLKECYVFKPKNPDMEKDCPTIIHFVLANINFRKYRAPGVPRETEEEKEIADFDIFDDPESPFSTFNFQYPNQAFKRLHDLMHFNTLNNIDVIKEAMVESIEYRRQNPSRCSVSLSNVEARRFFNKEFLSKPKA

[4] = test system: TNF-α release from human peripheral blood mononuclear cells; test: TNF-α release from human peripheral blood mononuclear cells; type: cell-based
[5] = 100 mg/kg b.w, rat paw edema, group of 6 animals, read-out: % PROTECTION Dose 100 mg/kg b.w
[6] = 3'-processing step, read-out: 3'P inhibitory potency
[7] = strand transfer step, read-out: ST inhibitory potency
[8] = Rattus norvegicus, 100 mg/kg body weight, read-out: protection in the carrageenan rat paw model
[9] = rat paw edema, group of 6 animals

Row | Compound | inhibition in vivo at 100 mg/kg [1, 5] [%] | inhibition in vivo at 100 mg/kg [1, 8] [%] | also measured
1 | CNc1nc(C)c(C(=O)C(=O)c2sc(NC)nc2C)s1 [G-1] | 14 ± 7 | – | –
2 | Cc1nc(Nc2ccccc2)sc1C(=O)C(=O)c1sc(Nc2ccccc2)nc1C [G-2] | 23 ± 8 | – | –
3 | Cc1nc(Nc2ccc(Cl)cc2)sc1C(=O)C(=O)c1sc(Nc2ccc(Cl)cc2)nc1C [G-3] | 73 ± 0.3 | – | IC50 [2, 6]: 132 µM; IC50 [2, 7]: 397 µM
4 | COC(=O)Nc1nc(C)c(C(=O)C(=O)c2sc(NC(=O)OC)nc2C)s1 [G-4] | 40 ± 2 | – | –
5 | CCOC(=O)Nc1nc(C)c(C(=O)C(=O)c2sc(NC(=O)OCC)nc2C)s1 [G-5] | 33 ± 0.9 | – | –
6 | O=C(Nc1nc(-c2ccccc2)c(C(=O)C(=O)c2sc(NC(=O)c3ccccc3)nc2-c2ccccc2)s1)c1ccccc1 [G-6] | 74 ± 0.5 | > 50 | cPLA2 inhibition (in words) [3]: weakly inhibited; melting point: 234 to 236 °C; effect on TNF-α release [4]: did not have any effect; IC50 [2, 6]: > 500 µM; IC50 [2, 7]: 277 µM
7 | O=C(C(=O)c1sc(Nc2ccccc2)nc1-c1ccccc1)c1sc(Nc2ccccc2)nc1-c1ccccc1 [G-7] | 70 ± 0.7 | > 50 | antiinflammatory activity (in words) [1]: good antiinflammatory activity
8 | O=C(C(=O)c1sc(Nc2ccc(Cl)cc2)nc1-c1ccccc1)c1sc(Nc2ccc(Cl)cc2)nc1-c1ccccc1 [G-8] | 66 ± 1 | > 50 | –
9 | COC(=O)Nc1nc(-c2ccccc2)c(C(=O)C(=O)c2sc(NC(=O)OC)nc2-c2ccccc2)s1 [G-9] | 26 ± 3 | – | –
10 | CCOC(=O)Nc1nc(-c2ccccc2)c(C(=O)C(=O)c2sc(NC(=O)OCC)nc2-c2ccccc2)s1 [G-10] | 34 ± 4 | – | –
11 | O=C(C(=O)c1sc(Nc2ccccc2)nc1Cc1ccccc1)c1sc(Nc2ccccc2)nc1Cc1ccccc1 [G-11] | 23 ± 2 | – | –
12 | O=C(C(=O)c1sc(Nc2ccc(Cl)cc2)nc1Cc1ccccc1)c1sc(Nc2ccc(Cl)cc2)nc1Cc1ccccc1 [G-12] | 72 ± 1 | > 50 | antiinflammatory activity (in words) [1]: good antiinflammatory activity
13 | COC(=O)Nc1nc(Cc2ccccc2)c(C(=O)C(=O)c2sc(NC(=O)OC)nc2Cc2ccccc2)s1 [G-13] | 35 ± 2.5 | – | –
14 | CCOC(=O)Nc1nc(Cc2ccccc2)c(C(=O)C(=O)c2sc(NC(=O)OCC)nc2Cc2ccccc2)s1 [G-14] | 38 ± 2 | – | –
15 | O=C(Nc1nc(Cc2ccccc2)c(C(=O)C(=O)c2sc(NC(=O)c3ccccc3)nc2Cc2ccccc2)s1)c1ccccc1 [G-15] | 47 ± 2.3 | – | –
16 | O=C(C(=O)c1sc(N2CCCCC2)nc1-c1ccccc1)c1sc(N2CCCCC2)nc1-c1ccccc1 [G-16] | – | > 50 | % PROTECTION [1, 9]: 65±0.8%
17 | O=C(C(=O)c1sc(N2CCOCC2)nc1-c1ccccc1)c1sc(N2CCOCC2)nc1-c1ccccc1 [G-17] | – | > 50 | effect on TNF-α release [4]: did not have any effect; % PROTECTION [1, 9]: 81±0.5%; IC50 [2, 6]: > 500 µM; IC50 [2, 7]: 109 µM
18 | CN1CCN(c2nc(-c3ccccc3)c(C(=O)C(=O)c3sc(N4CCN(C)CC4)nc3-c3ccccc3)s2)CC1 [G-18] | – | > 50 | % PROTECTION [1, 9]: 60±0.5%
19 | CCN1CCN(c2nc(-c3ccccc3)c(C(=O)C(=O)c3sc(N4CCN(CC)CC4)nc3-c3ccccc3)s2)CC1 [G-19] | – | > 50 | effect on TNF-α release [4]: did not have any effect; % PROTECTION [1, 9]: 72±0.5%
20 | O=C(C(=O)c1sc(N2CCN(c3ccccc3)CC2)nc1-c1ccccc1)c1sc(N2CCN(c3ccccc3)CC2)nc1-c1ccccc1 [G-20] | – | > 50 | % PROTECTION [1, 9]: 55±4%; IC50 [2, 6]: 122 µM; IC50 [2, 7]: 87 µM
21 | O=C(C(=O)c1sc(N2CCN(Cc3ccccc3)CC2)nc1-c1ccccc1)c1sc(N2CCN(Cc3ccccc3)CC2)nc1-c1ccccc1 [G-21] | – | > 50 | % PROTECTION [1, 9]: 85±0.3%
